# From patent publication US8129371B2, “Thienopyrimidine and pyrazolopyrimidine compounds and their use as mTOR kinase and PI3 kinase inhibitors” (Wyeth LLC, priority 2007, dated 2012)
# Read-outs that look alike come from different tables or passages of the source.
# Key:
# PI3K [1] = molecular target: T1, PI3K (Homo sapiens, UniProt P42336); assay: Fluorescence polarization assay for PI3K; format: biochemical; conditions: read-out: PI3 Kinase α IC50
# T1 construct: PI3 Kinase α IC50; other: PI3 Kinase α; other: PI3 Kinase α isoform, fluorescence polarization
# T1 sequence (P42336 whole entry, canonical isoform): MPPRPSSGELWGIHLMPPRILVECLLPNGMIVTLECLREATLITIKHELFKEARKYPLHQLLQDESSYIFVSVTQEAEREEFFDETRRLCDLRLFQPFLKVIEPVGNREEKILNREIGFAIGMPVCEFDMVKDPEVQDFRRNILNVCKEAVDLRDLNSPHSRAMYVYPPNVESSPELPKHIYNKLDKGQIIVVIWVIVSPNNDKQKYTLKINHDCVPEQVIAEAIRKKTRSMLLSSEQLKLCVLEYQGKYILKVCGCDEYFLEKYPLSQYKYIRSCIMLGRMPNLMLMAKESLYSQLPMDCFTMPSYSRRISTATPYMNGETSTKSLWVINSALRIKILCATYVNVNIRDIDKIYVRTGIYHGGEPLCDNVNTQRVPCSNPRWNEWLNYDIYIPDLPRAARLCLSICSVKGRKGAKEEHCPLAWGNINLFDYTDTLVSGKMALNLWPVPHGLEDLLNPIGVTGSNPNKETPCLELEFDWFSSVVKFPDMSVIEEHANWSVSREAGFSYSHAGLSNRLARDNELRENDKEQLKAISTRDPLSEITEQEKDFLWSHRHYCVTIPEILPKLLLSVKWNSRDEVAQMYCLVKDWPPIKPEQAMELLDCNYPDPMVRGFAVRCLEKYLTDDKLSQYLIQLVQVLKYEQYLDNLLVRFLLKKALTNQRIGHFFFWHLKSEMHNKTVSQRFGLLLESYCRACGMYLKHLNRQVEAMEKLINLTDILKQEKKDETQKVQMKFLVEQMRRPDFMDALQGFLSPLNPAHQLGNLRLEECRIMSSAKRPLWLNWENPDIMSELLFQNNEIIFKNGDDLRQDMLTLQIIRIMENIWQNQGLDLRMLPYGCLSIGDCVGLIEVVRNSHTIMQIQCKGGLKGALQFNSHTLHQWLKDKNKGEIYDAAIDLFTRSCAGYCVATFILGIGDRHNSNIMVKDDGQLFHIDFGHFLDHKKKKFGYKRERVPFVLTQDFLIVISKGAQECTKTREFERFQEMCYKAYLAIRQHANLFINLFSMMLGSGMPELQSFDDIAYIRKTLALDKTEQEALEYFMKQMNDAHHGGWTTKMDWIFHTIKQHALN
# Method: (§1) This assay is used to determine the IC50 of compounds of the present invention as it identifies inhibitors of PI3 kinase by measuring inhibition.
# (§2) The assay is run by placing 5 μL of diluted enzyme per well, then 5 μL of diluted compound (or 9.5 μL enzyme then 0.5 μL compound in DMSO) is added and mixed. Then, 10 μL substrate is added to start the reaction. The samples are incubated 30-60 minutes, then the reaction is stopped by adding 20 μL stop/detector mix. PI3K is diluted with reaction buffer (e.g., 5 μL or 7.5 μL PI3K into 620 μL reaction buffer), and 5 μL of diluted enzyme is used per well. 5 μL reaction buffer or drug diluted in buffer (e.g., 4 μL/100 so final DMSO is 1% in reaction) is added to each. Pipetting up and down mixes the samples. Alternatively, the enzyme can be diluted to 1215 μL. In this case 9.8 μL is added per well and 0.2 μL compound is added in DMSO. To prepare 1 mL of substrate solution, 955 μL reaction buffer, 40 μL PIP2, and 2.5 μL ATP are mixed. 10 μL of substrate is added to each well to start the reaction.
# (§3) Stop/detector mix is prepared by mixing 4 μL Red detector and 1.6 μL or 2.0 μL GST-GRP with 1 mL Stop buffer, which results in 10 nM probe and 70 nM GST-GRP). 20 μL of the stop/detector mix is added to each well to stop the reaction. The plates are read after 30-90 minutes keeping the red probe solutions dark. For the zero time point, stop/detector mix is added to the enzyme just before adding substrate. For an extra control, stop/detector mix is added to buffer (no enzyme) and substrate or to just buffer (no substrate). […] Plates are read on machines with filters for Tamra. The units are mP with no enzyme controls reading app 190-220 mP units. Fully active enzyme reduces fluorescence polarization down to 70-100 mP after 30 minutes.
# PI3K [2] = molecular target: T2, PI3K (Homo sapiens, UniProt P48736); assay: Fluorescence polarization assay for PI3K; format: biochemical; conditions: read-out: PI3 Kinase γ IC50
# T2 construct: PI3 Kinase γ IC50; other: PI3 Kinase γ; other: PI3 Kinase γ isoform, fluorescence polarization
# T2 sequence (P48736 whole entry, canonical isoform): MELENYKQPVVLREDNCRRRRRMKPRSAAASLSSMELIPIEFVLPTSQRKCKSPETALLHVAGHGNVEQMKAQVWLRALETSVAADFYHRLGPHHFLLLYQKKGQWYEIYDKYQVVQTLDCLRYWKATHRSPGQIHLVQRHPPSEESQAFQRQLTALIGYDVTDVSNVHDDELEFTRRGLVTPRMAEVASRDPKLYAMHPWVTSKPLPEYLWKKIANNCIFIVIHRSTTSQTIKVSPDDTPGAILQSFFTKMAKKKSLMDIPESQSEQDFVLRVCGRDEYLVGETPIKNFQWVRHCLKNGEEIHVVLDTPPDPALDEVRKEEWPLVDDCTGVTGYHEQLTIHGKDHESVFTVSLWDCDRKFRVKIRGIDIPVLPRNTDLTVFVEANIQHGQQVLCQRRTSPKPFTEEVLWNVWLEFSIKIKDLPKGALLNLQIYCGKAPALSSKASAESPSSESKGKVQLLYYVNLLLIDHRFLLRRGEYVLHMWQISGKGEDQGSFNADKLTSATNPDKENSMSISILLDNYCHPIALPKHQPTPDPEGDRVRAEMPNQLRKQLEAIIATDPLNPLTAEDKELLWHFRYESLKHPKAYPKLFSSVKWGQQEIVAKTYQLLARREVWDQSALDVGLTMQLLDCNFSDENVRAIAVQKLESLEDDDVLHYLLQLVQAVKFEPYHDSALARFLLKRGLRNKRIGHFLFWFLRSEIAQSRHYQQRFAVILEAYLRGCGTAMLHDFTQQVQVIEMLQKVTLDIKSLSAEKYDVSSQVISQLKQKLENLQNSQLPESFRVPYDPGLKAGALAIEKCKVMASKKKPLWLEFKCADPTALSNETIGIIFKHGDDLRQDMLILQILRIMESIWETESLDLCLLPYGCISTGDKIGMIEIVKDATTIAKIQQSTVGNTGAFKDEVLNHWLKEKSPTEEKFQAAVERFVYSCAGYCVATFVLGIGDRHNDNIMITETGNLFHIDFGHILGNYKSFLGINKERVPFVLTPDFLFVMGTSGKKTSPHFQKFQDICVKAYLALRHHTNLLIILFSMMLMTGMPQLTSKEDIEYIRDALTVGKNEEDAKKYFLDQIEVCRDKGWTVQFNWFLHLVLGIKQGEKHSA
# Method: as §1, §2, §3
# breast line MDA468 = assay: In vitro cell culture growth assay (MTS), MDA468; format: cell-based; conditions: Homo sapiens, 72 h, MDA468 cells, three days after drug treatment
# Method: (§4) Human tumor cell lines used include prostate lines LNCap and PC3MM2, breast lines MDA468, MCF7, renal line HTB44 (A498), colon line HCT116, and ovarian line OVCAR3. Cells were plated in 96-well culture plates. One day following plating, the inhibitors were added to cells. Three days after drug treatment, viable cell densities were determined by metabolic conversion (by viable cells) of the dye MTS, a well-established cell proliferation assay. The assays were performed using an assay kit purchased from Promega Corp. (Madison, Wis.) following the protocol supplied with the kit. The MTS assay results were read in a 96-well plate reader by measuring absorbance at 490 nm. The effect of each treatment was calculated as percent of control growth relative to the vehicle-treated cells grown in the same culture plate.
# Human mTOR (FLAG-TOR) = molecular target: T3, Human mTOR (FLAG-TOR) (Homo sapiens, UniProt P42345); assay: Human mTOR kinase assay with purified enzyme, DELFIA format; format: biochemical
# T3 construct: FLAG
# Method: Enzymes are first diluted in kinase assay buffer (10 mM HEPES (pH 7.4), 50 mM NaCl, 50 mM β-glycerophosphate, 10 mM MnCl2, 0.5 mM DTT, 0.25 mM microcystin LR, and 100 mg/mL BSA). To each well, 12 μL of the diluted enzyme is mixed briefly with 0.5 μL test inhibitor or control vehicle dimethylsulfoxide (DMSO). […] The reaction plate is incubated for 2 hours (linear at 1-6 hours) at room temperature with gentle shaking and then terminated by adding 25 μL Stop buffer (20 mM HEPES (pH 7.4), 20 mM EDTA, 20 mM EGTA). […] The DELFIA Assay buffer and Enhancement solution can be purchased from PerkinElmer. 45 μL of the terminated kinase reaction mixture is transferred to a MaxiSorp plate (Nunc) containing 55 μL PBS. The His6-S6K is allowed to attach for 2 hours after which the wells are aspirated and washed once with PBS. 100 μL of DELFIA Assay buffer with 40 ng/mL Eu—P(T389)-S6K antibody is added. The antibody binding is continued for 1 hour with gentle agitation. The wells are then aspirated and washed 4 times with PBS containing 0.05% Tween-20 (PBST). 100 μL of DELFIA Enhancement solution is added to each well and the plates are read in a PerkinElmer Victor model plate reader. Data obtained is used to calculate enzymatic activity and enzyme inhibition by potential inhibitors.
# prostate line LNCap = assay: In vitro cell culture growth assay (MTS), LNCap; format: cell-based; conditions: Homo sapiens, LNCaP, 72 h, LNCap cells, three days after drug treatment
# Method: as §4
# [3] = PI3 Kinase α isoform, fluorescence polarization
# [4] = PI3 Kinase γ isoform, fluorescence polarization
# [5] = purified human mTOR enzyme, DELFIA format
smiles,measurement,setting,value
"CC(C)C(=O)N1CCC(n2ncc3c(N4CC5CCC(C4)O5)nc(-c4ccc(NC(=O)Nc5ccncc5)cc4)nc32)CC1 [Example 89, 1-{4-[1-(1-isobutyrylpiperidin-4-yl)-4-(8-oxa-3-azabicyclo[3.2.1]oct-3-yl)-1H-pyrazolo[3,4-d]pyrimidin-6-yl]phenyl}-3-pyridin-4-ylurea]",IC50,PI3K [1]; PI3 Kinase α,301 nM
same,IC50,PI3K [2]; PI3 Kinase γ,2380 nM
same,IC50,breast line MDA468,63 nM
same,IC50,Human mTOR (FLAG-TOR),0.26 nM
same,IC50,prostate line LNCap,15 nM
"CN(C)CCn1ncc2c(N3CC4CCC(C3)O4)nc(-c3ccc(NC(=O)Nc4ccc(CO)cc4)cc3)nc21 [Example 163, 1-(4-{1-[2-(dimethylamino)ethyl]-4-(8-oxa-3-azabicyclo[3.2.1]oct-3-yl)-1H-pyrazolo[3,4-d]pyrimidin-6-yl}phenyl)-3-[4-(hydroxymethyl)phenyl]urea]",IC50,PI3K [1]; PI3 Kinase α,43 nM
same,IC50,PI3K [2]; PI3 Kinase γ,1290 nM
same,IC50,breast line MDA468,90 nM
same,IC50,Human mTOR (FLAG-TOR),0.88 nM
same,IC50,prostate line LNCap,28 nM
"CCn1ncc2c(N3CC4CCC(C3)O4)nc(-c3ccc(NC(=O)N[C@H]4CC[C@H](N)CC4)cc3)nc21 (relative stereo) [Example 230, 1-(trans-4-aminocyclohexyl)-3-{4-[1-ethyl-4-(8-oxa-3-azabicyclo[3.2.1]oct-3-yl)-1H-pyrazolo[3,4-d]pyrimidin-6-yl]phenyl}urea]",IC50,PI3K [1]; PI3 Kinase α,2890 nM
same,IC50,PI3K [2]; PI3 Kinase γ,> 10000 nM
same,IC50,breast line MDA468,1500 nM
same,IC50,Human mTOR (FLAG-TOR),15.5 nM
same,IC50,prostate line LNCap,1300 nM
"O=C(Nc1ccc(-c2nc(N3CC4CCC(C3)O4)c3cnn(CCF)c3n2)cc1)OCCO [Example 245, 2-hydroxyethyl {4-[1-(2-fluoroethyl)-4-(8-oxa-3-azabicyclo[3.2.1]oct-3-yl)-1H-pyrazolo[3,4-d]pyrimidin-6-yl]phenyl}carbamate]",IC50,PI3K [1]; PI3 Kinase α,2900 nM
same,IC50,PI3K [2]; PI3 Kinase γ,> 10000 nM
same,IC50,breast line MDA468,900 nM
same,IC50,Human mTOR (FLAG-TOR),1.2 nM
same,IC50,prostate line LNCap,130 nM
"CN1CCN(c2ccc(NC(=O)Nc3ccc(-c4nc(N5CC6CCC(C5)O6)c5cnn(C)c5n4)cc3)cc2)CC1 [Example 236, 1-{4-[1-methyl-4-(8-oxa-3-azabicyclo[3.2.1]oct-3-yl)-1H-pyrazolo[3,4-d]pyrimidin-6-yl]phenyl}-3-[4-(4-methylpiperazin-1-yl)phenyl]urea]",IC50,PI3K [1]; PI3 Kinase α,70 nM
same,IC50,PI3K [2]; PI3 Kinase γ,260 nM
same,IC50,breast line MDA468,43 nM
same,IC50,Human mTOR (FLAG-TOR),0.445 nM
same,IC50,prostate line LNCap,4 nM
"CO[C@H]1CC[C@H](n2ncc3c(N4CC5CCC(C4)O5)nc(-c4ccc(NC(=O)Nc5ccc(N6CCN(C)CC6)cc5)cc4)nc32)CC1 (relative stereo) [Example 396, 1-{4-[1-(trans-4-methoxycyclohexyl)-4-(8-oxa-3-azabicyclo[3.2.1]oct-3-yl)-1H-pyrazolo[3,4-d]pyrimidin-6-yl]phenyl}-3-[4-(4-methylpiperazin-1-yl)phenyl]urea]",IC50,PI3K [1]; [3],145 nM
same,IC50,PI3K [2]; [4],1790 nM
same,IC50,breast line MDA468,4 nM
same,IC50,Human mTOR (FLAG-TOR); [5],0.335 nM
same,IC50,prostate line LNCap,< 1 nM
"CCNC(=O)Nc1ccc(-c2nc(N3CC4CCC(C3)O4)c3cnn(CCO)c3n2)cc1 [Example 194, 1-ethyl-3-{4-[1-(2-hydroxyethyl)-4-(8-oxa-3-azabicyclo[3.2.1]oct-3-yl)-1H-pyrazolo[3,4-d]pyrimidin-6-yl]phenyl}urea]",IC50,PI3K [1]; PI3 Kinase α,1500 nM
same,IC50,PI3K [2]; PI3 Kinase γ,> 10000 nM
same,IC50,breast line MDA468,800 nM
same,IC50,Human mTOR (FLAG-TOR),2.7 nM
same,IC50,prostate line LNCap,280 nM
"COC1CCC(n2ncc3c(N4CC5CCC(C4)O5)nc(-c4ccc(NC(=O)Nc5ccc(OCCN(C)C)cc5)cc4)nc32)CC1 (stereo not shown) [Example 310, 1-{4-[2-(dimethylamino)ethoxy]phenyl}-3-{4-[1-(4-methoxycyclohexyl)-4-(8-oxa-3-azabicyclo[3.2.1]oct-3-yl)-1H-pyrazolo[3,4-d]pyrimidin-6-yl]phenyl}urea]",IC50,PI3K [1]; [3],221 nM
same,IC50,PI3K [2]; [4],2430 nM
same,IC50,breast line MDA468,1 nM
same,IC50,Human mTOR (FLAG-TOR); [5],0.495 nM
same,IC50,prostate line LNCap,< 1 nM
"COC(=O)N1CCC(n2ncc3c(N4CC5CCC(C4)O5)nc(-c4ccc(NC(=O)Nc5ccccc5)cc4)nc32)CC1 [Example 11, methyl 4-[4-(8-oxa-3-azabicyclo[3.2.1]oct-3-yl)-6-{4-[(phenylcarbamoyl)amino]phenyl}-1H-pyrazolo[3,4-d]pyrimidin-1-yl]piperidine-1-carboxylate]",IC50,PI3K [1]; PI3 Kinase α,272 nM
same,IC50,PI3K [2]; PI3 Kinase γ,6820 nM
same,IC50,breast line MDA468,120 nM
same,IC50,Human mTOR (FLAG-TOR),0.37 nM
same,IC50,prostate line LNCap,10 nM
"CN1CCN(c2ccc(NC(=O)Nc3ccc(-c4nc(N5CC6CCC(C5)O6)c5cnn([C@H]6CC[C@@H](O)CC6)c5n4)cc3)cc2)CC1 (relative stereo) [Example 405, 1-{4-[1-(cis-4-hydroxycyclohexyl)-4-(8-oxa-3-azabicyclo[3.2.1]oct-3-yl)-1H-pyrazolo[3,4-d]pyrimidin-6-yl]phenyl}-3-[4-(4-methylpiperazin-1-yl)phenyl]urea]",IC50,PI3K [1]; [3],107 nM
same,IC50,PI3K [2]; [4],1360 nM
same,IC50,breast line MDA468,20 nM
same,IC50,Human mTOR (FLAG-TOR); [5],0.33 nM
same,IC50,prostate line LNCap,< 1 nM
"CCNC(=O)Nc1ccc(-c2nc(N3CC4CCC(C3)O4)c3cnn(C4CCC(N5CCN(C)CC5)CC4)c3n2)cc1 (stereo not shown) [Example 370, 1-ethyl-3-(4-{1-[4-(4-methylpiperazin-1-yl)cyclohexyl]-4-(8-oxa-3-azabicyclo[3.2.1]oct-3-yl)-1H-pyrazolo[3,4-d]pyrimidin-6-yl}phenyl)urea]",IC50,PI3K [1]; [3],2150 nM
same,IC50,PI3K [2]; [4],6510 nM
same,IC50,breast line MDA468,400 nM
same,IC50,Human mTOR (FLAG-TOR); [5],0.985 nM
same,IC50,prostate line LNCap,130 nM
"COCC(COC)n1ncc2c(N3CC4CCC(C3)O4)nc(-c3ccc(NC(=O)OC)cc3)nc21 [Example 328, methyl (4-{1-[2-methoxy-1-(methoxymethyl)ethyl]-4-(8-oxa-3-azabicyclo[3.2.1]oct-3-yl)-1H-pyrazolo[3,4-d]pyrimidin-6-yl}phenyl)carbamate]",IC50,PI3K [1]; [3],5770 nM
same,IC50,PI3K [2]; [4],> 10000 nM
same,IC50,breast line MDA468,9200 nM
same,IC50,Human mTOR (FLAG-TOR); [5],125 nM
same,IC50,prostate line LNCap,2350 nM
"N#CCCn1ncc2c(N3CC4CCC(C3)O4)nc(-c3ccc(NC(=O)Nc4ccncc4)cc3)nc21 [Example 217, 1-{4-[1-(2-cyanoethyl)-4-(8-oxa-3-azabicyclo[3.2.1]oct-3-yl)-1H-pyrazolo[3,4-d]pyrimidin-6-yl]phenyl}-3-pyridin-4-ylurea]",IC50,PI3K [1]; PI3 Kinase α,112 nM
same,IC50,PI3K [2]; PI3 Kinase γ,348 nM
same,IC50,breast line MDA468,1 nM
same,IC50,Human mTOR (FLAG-TOR),0.17 nM
same,IC50,prostate line LNCap,< 1 nM
"COC(=O)Nc1ccc(-c2nc(N3CC4CCC(C3)O4)c3cnn(CC(F)(F)F)c3n2)cc1 [Example 2, methyl {4-[4-(8-oxa-3-azabicyclo[3.2.1]oct-3-yl)-1-(2,2,2-trifluoroethyl)-1H-pyrazolo[3,4-d]pyrimidin-6-yl]phenyl}carbamate]",IC50,PI3K [1]; PI3 Kinase α,> 10000 nM
same,IC50,PI3K [2]; PI3 Kinase γ,> 10000 nM
same,IC50,breast line MDA468,680 nM
same,IC50,Human mTOR (FLAG-TOR),8 nM
same,IC50,prostate line LNCap,650 nM
